Experimental data from US10695387B2, “Extracts of microalgae and plants for regulating sebum production” (Cutech SRL, priority 2014, dated 2020).

Test system: human sebaceous glands (hSGs)
Assay: Ex-vivo culture of human sebaceous glands (hSGs), quantification of sebum content (lipids/proteins) vs control
Type: cell-based
Details: positive control
Text: All the reported examples are intended to show the modulation of sebum production exerted by the experimental preparations on human hSGs microdissected and cultivated up to day 6. At the end of the culture time, the sebum is extracted and quantified from each experimental group of hSGs and then normalized by the proteins extracted from the residual hSG material (mg lipids/mg proteins). As a result, the biological activity of the tested compounds is inferred by comparing the ratio lipids/proteins of the treated glands with that of the control group.
Using micro-scissors and tweezers, hSGs were isolated from the pilosebaceous units of a scalp skin sample. They were seeded in 24-well plates at the density of 8 hSGs/well and then cultivated in 500 μl of modified William E medium. After 24 hours of culture the viability of the hSGs was assessed by means of resazurine assay. Briefly, each hSGs group was transferred onto a microplate well with 200 μl of 10% resazurin culture medium for 2 hours. During this period the resazurin, a non-fluorescent blue dye, is reduced by living cells to the pink coloured and highly red fluorescent resorufin. At the end of the incubation, the medium was withdrawn and analyzed for the resazurin fluorescence in a plate reader ([…]). The fluorescence signal positively correlates with the hSGs viability. Since the resazurin test is not toxic, the hSGs were then seeded in a 24-well plate and cultivated with the experimental culture media in order to start the treatments. The control received William E medium appropriately modified, while the samples submitted to experimental treatments received the same medium supplemented with experimental extracts. The culture medium was renewed every other day. After six days of organ culture, the viability of the hSGs was again assessed via resazurine assay and then, having attested their good viability, each group of hGSs was collected and analyzed for quantifying the sebum content.
Each hSG group was homogenized in 100 μl of isopropyl alcohol;
the sample was centrifuged at 14,000 G for 5 minutes and then the supernatant (containing the extracted sebum) was collected;
the sebum extract was analyzed in triplicate with a Direct Detect IR Spectrometer (Millipore), which provided the total lipid concentration of the supernatant (mg/ml);
the total lipids of the hSGs was quantified multiplying the supernatant lipid concentration (indention 3) by the volume of isopropyl alcohol adopted for the lipid extraction (indention 1);
the pellet remaining from indention 2 was dried by means of a vacuum dry evaporator and then again homogenized in 50 μl of proteolytic buffer (20 mM Tris/HCl pH 7.5, 150 mM NaCl, 2 mM EDTA, 0.5% Triton X-100, 2 mM DTT, 1% protease inhibitor cocktail);
after an appropriate incubation time, this extractive mixture was centrifuged at 14,000 G for 10 minutes and the supernatant was collected and analyzed in triplicate with a Direct Detect IR Spectrometer (Millipore);
the obtained total protein concentration was multiplied by the extractive volume (indention 5) in order to quantify the total proteins of the hSGs;
the total lipid amount (indention 4), i.e. the amount of sebum, was divided by the total proteins (indention 7) in order to obtain the normalized amount of lipids per mg of proteins (mg of lipids/mg of proteins).
The amounts of normalized lipids obtained from the treated groups, i.e. the sebum produced by each group of hSGs, were expressed in percentages with respect to the value obtained in the control group, in order to point out the regulatory effect performed by the experimental treatment.

## COc1cc(CNC(=O)CCCC/C=C/C(C)C)ccc1O [Capsaicin]
Table 2 experiment, 5 μM
  Sebum content in hSGs, Average, % ratio of the control group performance: 90.3%
Table 5 experiment, Amount 0
  Sebum content in hSGs, Average, % ratio of the control group performance: 68.5%
Table 6 experiment (different donor), Amount 0
  Sebum content in hSGs, Average, % ratio of the control group performance: 59.2%
Table 7 experiment, Amount 0
  Sebum content in hSGs, Average, % ratio of the control group performance: 97.4%
Table 8 experiment, Amount 0
  Sebum content in hSGs, Average, % ratio of the control group performance: 91.9%
Table 10 experiment, 5 μg/ml
  Sebum content in hSGs, Average, % ratio of the control group performance: 62.9%
